Data published in patent EP0318240A2, “Peptide, adsorbent, method for production thereof, and method for use thereof” (AGENCY OF INDUSTRIAL SCIENCE & TECHNOLOGY MINISTRY OF …, priority 1987, dated 1989).

Assay: Solubility of peptide in the phosphate buffer solution used for immobilization
Type: physicochemical
Settings: phosphate buffer solution (0.02 mol/liter) of pH 7.4
Procedure: • (a) In 50 ml of dioxane obtained by distillation in the presence of sodium metal, 10 g of cellulose particles (marketed by Seikagaku Kogyo Co., Ltd. under the tradename "CM-Cellulofine CH") were suspended. In the suspension, 0.5 g of N-hydroxysuccinimide and 1.0 g of dicyclohexylcarbodiimide added thereto were shaken overnight at room temperature. The resultant mixture was washed with a phosphate buffer solution (0.02 mol/liter) of pH 7.4 and suction filtered. The particles consequently obtained and 20 ml of a phosphate buffer solution (0.02 mol/liter) of pH 7.4 containing 20 mg of the peptide of Example 1 added thereto were stirred overnight at a temperature of 4°C. The mixture consequently obtained was suction filtered. […] Thus, about 10 g of cellulose particles (the adsorbent not heat treated) having immobilized thereon 20 mg of the peptide of Example 1 were obtained. • (b) In 5-ml aliquots of a phosphate buffer solution (0.02 mol/liter) of pH 7.4 containing sodium chloride in a concentration of 0.15 mol/liter, the peptide-immobilized cellulose particles obtained as described above were suspended in a unit amount of 1 g. […]

solubility in the phosphate buffer solution: low solubility
Substance: H-Leu-Leu-Gly-Trp-Lys-His-Trp-Val-Tyr-Tyr-Thr- C y s - C^y s -Pro-Asp-Thr-Pro-Tyr-Leu-Asp-OH [Referential Example 2]
